Measured values from patent publication US20220228120A1, “Cardiomyocyte Compositions and Use Thereof” (UNIVERSITY HEALTH NETWORK, priority 2019, published 2022).

Key:
Type in all cases: cell-based, human
mature and immature CMs [1] = experiment: In vitro pathological stimuli model: CASP9 expression and Annexin V apoptosis assay
Method: After the culture in the pathological condition for 6 days, the EBs were dissociated as described above. To detect the apoptosis following the pathological stimuli, TACS® Annexin V assay (TREVIGEN) was performed by flowcytometry. Cells were washed with PBS and stained with Annexin V-FITC for 15 mins at room temperature. Add Binding Buffer to samples and process by flowcytometry. Stained cells were analyzed using the LSR II Flow cytometer (BD). Data were analyzed using FlowJo™ software (Tree Star).
(§1) To induce a pathological response in the mature CMs, we cultured them in the presence of isoproterenol (100 μM), a small molecule adrenergic agonist in a hypoxic (5% O2) environment, in low glucose containing medium with Palmitate (200 μM) for 6 days (FIG. 8B). Immature control cells were treated under the same conditions. […] (FIG. 8C). To assess the glycolytic flux in these cells, we measured the extracellular acidification rate (ECAR) as an index of glycolytic activity using the Seahorse™ XF assay (Mookerjee and Brand. J Vis Exp. (2015) e53464).

mature and immature CMs [2] = experiment: In vitro pathological stimuli model: Nile Red lipid accumulation; settings: treated populations
Method: To quantify the lipid droplets, Cayman's Lipid Droplets Fluorescence Assay Kit (Cayman) was used. After the EBs were dissociated as described above, cells were fixed by Fixative Solution for 10 mins at room temperature. Cells were washed with Assay Buffer and stained with the Nile Red Staining Solution at room temperature for 15 mins. Cells were washed with Assay Buffer and analyzed with filter sets to detect FITC using the LSR II Flow cytometer (BD PharMingen™). Data were analyzed using FlowJo™ software (Tree Star).
as §1

mature compact CMs [3] = experiment: In vitro pathological stimuli model: ECAR by Seahorse XF glycolysis assay
Method: For the Seahorse™ XF FAO assay, a few EBs were plated onto an XFe24 cell culture microplate coated by Matrigel™ 48 hours prior to the assay. 24 hours prior to the assay, replace the culture medium with substrate-limited medium containing 0.5 mM glucose (Sigma), 1.0 mM Glutamine (Life technology), 0.5 mM Carnitine (Sigma), and 1% Fetal Bovine Serum (Wisent) in DMEM no glucose medium (ThermoFisher). 45 mins prior to the assay, wash the cells two times with FAO assay medium, add 375 μl/well FAO assay medium to the cells and incubate for 45 mins at 37 C. Load the assay cartridge with Seahorse™ XF Cell Mito Stress Test compounds (2 μM oligomycin, 5 μM FCCP, 0.5 μM rotenone/0.5 μM antimycin A). […] After the measurement of OCR, EBs are dissociated and counted the cell number in each well. […] After the measurement of ECAR, EBs are dissociated and counted the cell number in each well. […]
To induce a pathological response in the mature CMs, we cultured them in the presence of isoproterenol (100 μM), a small molecule adrenergic agonist in a hypoxic (5% O2) environment, in low glucose containing medium with Palmitate (200 μM) for 6 days (FIG. 8B). […] To assess the glycolytic flux in these cells, we measured the extracellular acidification rate (ECAR) as an index of glycolytic activity using the Seahorse™ XF assay (Mookerjee and Brand. J Vis Exp. (2015) e53464).

mature compact CMs [4] = experiment: In vitro pathological stimuli model (hypoxia+ISO): RT-qPCR
Method: Total RNA from samples was isolated using RNAqueous™-micro Kit including RNase-free DNase treatment (invitrogen). RNA from dissected ventricular and atrial tissue of human fetal hearts was isolated using the TRIzol® method (ThermoFisher) and treated with DNase (Ambion®). Isolated RNA was reverse transcribed into cDNA using oligo (dT) primers and random hexamers and iScript™ Reverse Transcriptase (ThermoFisher). QRT-PCR was performed on an EP Real-Plex MasterCycler® (Eppendorf®) using QuantiFast® SYBR Green PCR kit (QIAGEN). The copy number of each gene relative to the house keeping gene TBP.
as §1

[5] = system: hPSC-derived compact cardiomyocytes; experiment: Seahorse XF FAO Cell Mito stress test (OCR), compact cardiomyocytes; settings: ETO 40 μM, mature cells
hPSC-derived atrial CMs = experiment: Seahorse FAO Cell Mito stress test (OCR), atrial CMs; settings: ETO 40 μM

For CC(C)NCC(O)c1ccc(O)c(O)c1 (stereo not shown) [isoproterenol], the “apoptosis (CASP9, Annexin V^+ cells)” value (mature and immature CMs [1]; immature population) was “not in the immature population”, the “apoptosis (CASP9, Annexin V^+ cells)” value (mature and immature CMs [1]; mature population) was “induced apoptosis” and the “lipid accumulation (Nile red)” value (mature and immature CMs [2]) was “increases”. The “glycolytic activity (ECAR)” value (mature compact CMs [3]; isoproterenol 100 μM, 5% O2, 6 days, mature CMs) was “significantly upregulated”, the “expression of glycolysis-related genes GLUT1, GAPDH and LDHA” value (mature compact CMs [4]; isoproterenol 100 μM, 5% O2, low glucose with Palmitate 200 μM, 6 days, mature CMs) was “upregulation” and the “expression of CD36, GPD1 and PLIN2” value (mature compact CMs [4]; mature CMs under the pathological stimuli) was “upregulated”. The “expression of hormone sensitive lipase HSL” value (mature compact CMs [4]; treated mature CMs) was “downregulated”.

With CCOC(=O)[C@@]1(CCCCCCOc2ccc(Cl)cc2)CO1 [ETO, etomoxir] the mitochondrial oxidation [5] was “blocked” and the “mitochondrial oxidation, atrial CMs” value (hPSC-derived atrial CMs) was “blocked”.

O=CC[C@@H](O)[C@H](O)[C@H](O)CO [2-DG, 2-deoxy-glucose] was tested, and the ECAR following injection (mature compact CMs [3]; mature CMs exposed to the pathological stimuli, 2-DG 100 mM) was “rapid decrease”.
